Experimental findings from US9447060B2, “Small molecule modulators of pRb inactivation” (The Wistar Institute of Anatomy and Biology, priority 2011, dated 2016) are described below.

Test [1] addresses T1, GST-pRbABC/E2F complex disrupted by 6×His-HPV1AE7CR2-3 (Homo sapiens, UniProt P06400).
T1 construct: made in house; host or cells: pRb: Sf9; E2F1 and E7: E. coli BL21(DE3)
T1 sequence (P06400 376-928): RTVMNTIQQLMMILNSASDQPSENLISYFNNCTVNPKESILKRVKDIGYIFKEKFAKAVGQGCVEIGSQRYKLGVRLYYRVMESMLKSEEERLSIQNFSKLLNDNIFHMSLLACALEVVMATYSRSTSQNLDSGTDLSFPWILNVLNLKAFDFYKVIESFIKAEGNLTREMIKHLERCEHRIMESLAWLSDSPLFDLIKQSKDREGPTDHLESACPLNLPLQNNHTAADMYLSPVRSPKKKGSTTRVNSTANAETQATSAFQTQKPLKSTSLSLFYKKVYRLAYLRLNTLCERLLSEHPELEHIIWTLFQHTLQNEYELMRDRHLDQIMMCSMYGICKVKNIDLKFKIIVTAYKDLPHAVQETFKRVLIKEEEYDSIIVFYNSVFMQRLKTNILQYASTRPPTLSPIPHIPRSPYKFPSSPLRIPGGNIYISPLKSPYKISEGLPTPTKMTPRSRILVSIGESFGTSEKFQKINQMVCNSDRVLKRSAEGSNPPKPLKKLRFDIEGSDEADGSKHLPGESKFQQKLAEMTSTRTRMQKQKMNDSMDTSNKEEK
T1 sequence (Q01094 243-437 partner limits assumed): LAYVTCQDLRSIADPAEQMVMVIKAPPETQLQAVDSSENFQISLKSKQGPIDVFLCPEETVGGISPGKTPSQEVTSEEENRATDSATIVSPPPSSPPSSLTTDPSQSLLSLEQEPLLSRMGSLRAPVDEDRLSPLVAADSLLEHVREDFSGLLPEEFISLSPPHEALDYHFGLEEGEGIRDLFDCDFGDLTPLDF
Description: ELISA: inhibition of HPV1A-E7-mediated disruption of pRb/E2F complexes. The test is classed as binding, low risk HPV (type 1A). Particulars: E2F remaining bound to pRb; 500 nM 1AE7. Here is the method:
Since HPV-E7 mediates high affinity pRb binding through the association of its L×C×E motif in CR2 to the B domain of pRb, the ability of the thiadiazolidinedione compounds to inhibit the ability of other L×C×E containing viral oncoproteins from disrupting E2F/pRb complexes was tested. The other L×C×E containing viral oncoproteins tested included HPV-E7 from a low risk HPV form (type 1A) and Adenovirus E1A proteins.
(§1) A similar ELISA assay was used to assess the ability of the compounds to inhibit the ability of HPV16-E7-mediated disruption of E2F/pRb complexes. For these studies, 6×His-HPV1AE7CR2-3 and 6×His-Ad5E1ACR1-3, containing the L×C×E motif, were employed. The assay described above was modified in such a way that GST-pRbABC alone was added to HPV-E7CR2-3+ compound, HPV-E7CR2-3+DMSO, Ad5-E1ACR1-3+ compound, or Ad5-E1ACR1-3 DMSO. Mouse monoclonal anti-His antibody (Fisher) diluted 1:10,000 was used to detect how much His-E7CR2-3 remained bound to GST-pRbABC on the plate. Mouse monoclonal Ad5-E1A antibody (Abeam) diluted 1:10,000 was used to detect how much E1ACR1-3 remained bound to GST-pRbABC on the plate. All other steps remained unchanged.

Test [2] has as its target T2, GST-pRbABC/6×His-Ad5E1ACR1-3 complex (Homo sapiens, UniProt P06400).
T2 construct: made in house; host or cells: pRb: Sf9; E1A: E. coli BL21(DE3)
T2 sequence (P06400 376-928): T1 sequence (P06400 376-928)
In words: ELISA: disruption of pRb/Ad5-E1A complex. Type of test: binding, adenovirus. Particulars: disruption of pRb/viral oncoprotein complex; 100 nM E1A. Here is the method: as §1

Test [3] deals with T3, GST-pRbABC/6×His-HPV1AE7CR2-3 complex (Homo sapiens, UniProt P06400).
T3 construct: made in house; host or cells: pRb: Sf9; E7: E. coli BL21(DE3)
T3 sequence (P06400 376-928): T1 sequence (P06400 376-928)
In words: ELISA: disruption of pRb/HPV1A-E7 complex. The test is classed as binding, low risk HPV (type 1A). As to conditions: disruption of pRb/viral oncoprotein complex; 500 nM 1AE7. Here is the method:
as §1
Background: ELISA stands for enzyme-linked immunosorbent assay.

The next test deals with T4, pRbAB (Homo sapiens, UniProt P06400, DEL590-635).
T4 construct: untagged pRbAB (372-787 with the linker from 590-635 removed); made in house
T4 sequence (P06400 with tags, fused parts or gaps DEL590-635): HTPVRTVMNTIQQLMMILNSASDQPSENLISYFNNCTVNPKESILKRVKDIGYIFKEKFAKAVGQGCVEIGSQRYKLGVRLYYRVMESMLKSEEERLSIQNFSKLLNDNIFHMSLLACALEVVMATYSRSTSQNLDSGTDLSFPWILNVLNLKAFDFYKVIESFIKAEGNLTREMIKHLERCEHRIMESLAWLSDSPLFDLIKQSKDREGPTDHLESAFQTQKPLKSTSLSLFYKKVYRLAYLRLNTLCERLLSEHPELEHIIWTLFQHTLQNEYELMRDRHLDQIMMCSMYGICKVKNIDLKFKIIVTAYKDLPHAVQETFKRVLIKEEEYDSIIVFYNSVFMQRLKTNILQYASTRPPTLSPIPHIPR
In words: Isothermal titration calorimetry binding to pRbAB. Particulars: for Kd: ITC, pRbAB, 22° C. The protocol:
For use in isothermal titration calorimetry studies, untagged pRbAB (372-787 with the linker from 590-635 removed) was prepared as described in Xiao et al., PNAS USA, 100:2363-2368 (2003).
This example illustrates the ability of the thiadiazolin-3,5-dione compounds to bind directly to a truncated pRb protein construct containing the A and B domains of the pRb pocket (pRbAB) using isothermal titration calorimetry (ITC).
Binding of compounds 1-9 to pRbAB were measured by ITC using a MicroCal™ VP-ITC isothermal titration calorimeter (MicroCal, Inc). Proteins were extensively dialyzed against a buffer containing Hepes (20 mM), pH=7.5, NaCl (150 mM) and Tris carboxy ethyl phosphine (0.1 mM) prior to analysis. Eight to twelve μL injections of 750-1500 μM compound were titrated into a pRb solution (50-150 μM) pre-equilibrated to 22° C. After subtraction of dilution heats, calorimetric data were analyzed with the MicroCal™ Origin® V5.0 (MicroCal Software, Northampton, Mass.).
On the technique in general: ITC needs no label: the signal is the heat of the interaction.

The structures appear in SMILES notation.

Regarding `Cc1ccccc1-n1sc(=O)n(C)c1=O` [Compound 3], the half-inhibitory concentration (IC50) (as a rule, the point on the concentration scale where inhibition reaches its midpoint) was found to be 4.5 ± 1.7 µM in test [1], 1 ± 2.1 µM in test [2] and 3.4 ± 2 µM in test [3]. Moreover, the “reversibility of binding to pRb” value at pRbAB (ITC repeated after overnight dialysis of pRb/compound complex) is “reversible”. Further, at pRbAB, the Kd (as a rule, a measure of binding affinity in units of concentration) is 0.106 ± 0.034 µM.

For `Cc1cc(Cl)ccc1-n1sc(=O)n(C(C)C)c1=O` [Compound 4], the IC50 was found to be 5.5 ± 1.7 µM in test [1], 3.8 ± 1.5 µM in test [2] and 4.7 ± 2.1 µM in test [3]. In addition, binding on pRbAB was characterised by a dissociation constant (Kd) of 0.187 ± 0.022 µM.
